From ChEMBL document CHEMBL2417379, “Anti-inflammatory and anti-apoptotic effects of (RS)-glucoraphanin bioactivated with myrosinase in murine sub-acute and acute MPTP-induced Parkinson's disease” (Bioorg Med Chem, 2013)
Active and inactive are the calls of the source. The rule behind the calls is not given here.

Columns and labels:
[1] = tested on: Mus musculus; assay: Neuroprotective activity in C57BL/6 mouse sub-acute MPTP-induced parkinson's disease model assessed as increase in GAP-43 expression in brain at 10 mg/kg, ip administered for 1 week prior to MPTP challenge by immunohistochemistry; assay type: functional, organism-based; set-up: dose 10 mg/kg
[2] = tested on: Mus musculus; assay: Neuroprotective activity in C57BL/6 mouse acute MPTP-induced Parkinson's disease model assessed as increase in GAP-43 expression in brain at 10 mg/kg, ip administered for 1 week prior to MPTP challenge by immunohistochemistry; assay type: functional, organism-based; set-up: dose 10 mg/kg
[3] = tested on: Mus musculus; assay: Toxicity in C57BL/6 mouse assessed as faster drop time at 10 mg/kg, ip by pole test; assay type: organism-based; set-up: dose 10 mg/kg, route intraperitoneal; settings: in vivo
[4] = tested on: Mus musculus; assay: Neuroprotective activity in C57BL/6 mouse sub-acute MPTP-induced parkinson's disease model assessed as bewilderment at 10 mg/kg, ip administered for 1 week prior to MPTP challenge by pole test relative to untreated control; assay type: functional, organism-based; set-up: dose 10 mg/kg
[5] = tested on: Mus musculus; assay: Neuroprotective activity in C57BL/6 mouse sub-acute MPTP-induced parkinson's disease model assessed as latency time at 10 mg/kg, ip administered for 1 week prior to MPTP challenge by open field test relative to vehicle-treated control; assay type: functional; settings: route intraperitoneal
[6] = tested on: Mus musculus; assay: Neuroprotective activity in C57BL/6 mouse acute MPTP-induced parkinson's disease model assessed as preservation of neurological behavioural changes at 10 mg/kg, ip administered for 1 week prior to MPTP challenge measured for 3 mins by open field test relative to vehicle-treated control; assay type: functional, organism-based; set-up: dose 10 mg/kg
[7] = tested on: Mus musculus; assay: Toxicity in C57BL/6 mouse assessed as change in body weight at 10 mg/kg, ip; assay type: organism-based; set-up: dose 10 mg/kg, route intraperitoneal; settings: in vivo
[8] = tested on: Mus musculus; assay: Antiparkinsonian activity in C57BL/6 mouse sub-acute MPTP-induced parkinson's disease model assessed as reduction in MPTP-induced change in body weight at 10 mg/kg, ip administered for 1 week prior to MPTP challenge relative to control; assay type: functional, organism-based; set-up: dose 10 mg/kg
[9] = tested on: Mus musculus; assay: Antiparkinsonian activity in C57BL/6 mouse acute MPTP-induced parkinson's disease model assessed as reduction in MPTP-induced change in body weight at 10 mg/kg, ip administered for 1 week prior to MPTP challenge relative to control; assay type: functional, organism-based; set-up: dose 10 mg/kg
[10] = tested on: Mus musculus; assay: Antiapoptotic activity against C57BL/6 mouse sub-acute MPTP-induced parkinson's disease model assessed as protection against neuronal functional disruption at 10 mg/kg, ip administered for 1 week prior to MPTP challenge by golgi staining-based microscopic analysis relative to untreated control; assay type: organism-based; set-up: dose 10 mg/kg
[11] = tested on: Mus musculus; assay: Antiapoptotic activity against DA neurons in C57BL/6 mouse acute MPTP-induced parkinson's disease model assessed as protection against neuronal functional disruption at 10 mg/kg, ip administered for 1 week prior to MPTP challenge by golgi staining-based microscopic analysis relative to untreated control; assay type: organism-based; set-up: dose 10 mg/kg
[12] = tested on: Mus musculus; assay: Toxicity in C57BL/6 mouse assessed as Bcl2 expression in brain at 10 mg/kg, ip measured after 8 days by immunohistochemistry; assay type: organism-based; set-up: dose 10 mg/kg, route intraperitoneal; settings: in vivo, 192 h
[13] = tested on: Mus musculus; assay: Antiapoptotic activity against DA neurons in C57BL/6 mouse acute MPTP-induced parkinson's disease model assessed as increase in Bcl2 expression at 10 mg/kg, ip administered for 1 week prior to MPTP challenge measured after 8 days by immunohistochemistry relative to untreated control; assay type: functional, organism-based; set-up: dose 10 mg/kg
[14] = tested on: Mus musculus; assay: Antiapoptotic activity against DA neurons in C57BL/6 mouse sub-acute MPTP-induced parkinson's disease model assessed as increase in Bcl2 expression at 10 mg/kg, ip administered for 1 week prior to MPTP challenge measured after 8 days by immunohistochemistry relative to untreated control; assay type: functional, organism-based; set-up: dose 10 mg/kg
[15] = tested on: Mus musculus; assay: Toxicity in C57BL/6 mouse assessed as Bax expression in brain at 10 mg/kg, ip measured after 8 days by immunohistochemistry; assay type: organism-based; set-up: dose 10 mg/kg, route intraperitoneal; settings: in vivo, 192 h
[16] = tested on: Mus musculus; assay: Antiapoptotic activity against DA neurons in C57BL/6 mouse sub-acute MPTP-induced parkinson's disease model assessed as reduction in Bax expression at 10 mg/kg, ip administered for 1 week prior to MPTP challenge measured after 8 days by immunohistochemistry relative to untreated control; assay type: functional, organism-based; set-up: dose 10 mg/kg
[17] = tested on: Mus musculus; assay: Antiinflammatory activity against C57BL/6 mouse sub-acute MPTP-induced parkinson's disease model assessed as reduction in cytosolic GFAP localization in brain at 10 mg/kg, ip administered for 1 week prior to MPTP challenge by immunohistochemistry relative to untreated control; assay type: functional, organism-based; set-up: dose 10 mg/kg
[18] = tested on: Mus musculus; assay: Neurotoxicity in C57BL/6 mouse assessed as cytosolic GFAP localization in brain at 10 mg/kg, ip by immunohistochemistry; assay type: toxicity, organism-based; set-up: dose 10 mg/kg, route intraperitoneal; settings: in vivo
[19] = tested on: Mus musculus; assay: Antiapoptotic activity against DA neurons in C57BL/6 mouse acute MPTP-induced parkinson's disease model assessed as reduction in Bax expression at 10 mg/kg, ip administered for 1 week prior to MPTP challenge measured after 8 days by immunohistochemistry relative to untreated control; assay type: functional, organism-based; set-up: dose 10 mg/kg
[20] = tested on: Mus musculus; assay: Neurotoxicity in C57BL/6 mouse assessed as Nrf2 localization in brain at 10 mg/kg, ip by immunohistochemistry; assay type: toxicity, organism-based; set-up: dose 10 mg/kg, route intraperitoneal; settings: in vivo
[21] = tested on: Mus musculus; assay: Antiinflammatory activity against C57BL/6 mouse acute MPTP-induced parkinson's disease model assessed as reduction in cytosolic GFAP localization in brain at 10 mg/kg, ip administered for 1 week prior to MPTP challenge by immunohistochemistry relative to untreated control; assay type: functional, organism-based; set-up: dose 10 mg/kg
[22] = tested on: Mus musculus; assay: Antiinflammatory activity against C57BL/6 mouse sub-acute MPTP-induced parkinson's disease model assessed as increase in Nrf2 localization in brain at 10 mg/kg, ip administered for 1 week prior to MPTP challenge by immunohistochemistry relative to untreated control; assay type: functional, organism-based; set-up: dose 10 mg/kg
[23] = tested on: Mus musculus; assay: Antiinflammatory activity against C57BL/6 mouse acute MPTP-induced parkinson's disease model assessed as increase in Nrf2 localization in brain at 10 mg/kg, ip administered for 1 week prior to MPTP challenge by immunohistochemistry relative to untreated control; assay type: functional, organism-based; set-up: dose 10 mg/kg
[24] = tested on: Mus musculus; assay: Neurotoxicity in C57BL/6 mouse assessed as nitrotyrosine localization in substantia nigra pars compacta at 10 mg/kg, ip by immunohistochemistry; assay type: toxicity, organism-based; set-up: dose 10 mg/kg, route intraperitoneal; settings: in vivo
[25] = species: Mus musculus; assay: Antiinflammatory activity against C57BL/6 mouse sub-acute MPTP-induced parkinson's disease model assessed as reduction in nitrotyrosine localization in substantia nigra pars compacta prior to MPTP challenge by immunohistochemistry relative to untreated control; assay type: functional, organism-based
[26] = tested on: Mus musculus; assay: Neurotoxicity in C57BL/6 mouse assessed as IL-1beta localization in brain at 10 mg/kg, ip measured after 8 days by immunohistochemistry; assay type: toxicity, organism-based; set-up: dose 10 mg/kg, route intraperitoneal; settings: in vivo, 192 h
[27] = tested on: Mus musculus; assay: Antiinflammatory activity against C57BL/6 mouse acute MPTP-induced parkinson's disease model assessed as reduction in nitrotyrosine localization in substantia nigra pars compacta at 10 mg/kg, ip administered for 1 week prior to MPTP challenge by immunohistochemistry relative to untreated control; assay type: functional, organism-based; set-up: dose 10 mg/kg
[28] = tested on: Mus musculus; assay: Antiinflammatory activity against C57BL/6 mouse sub-acute MPTP-induced parkinson's disease model assessed as reduction in IL-1beta localization in brain at 10 mg/kg, ip administered for 1 week prior to MPTP challenge measured after 8 days by immunohistochemistry relative to untreated control; assay type: functional, organism-based; set-up: dose 10 mg/kg
[29] = tested on: Mus musculus; assay: Antiinflammatory activity against C57BL/6 mouse acute MPTP-induced parkinson's disease model assessed as reduction in IL-1beta localization in brain at 10 mg/kg, ip administered for 1 week prior to MPTP challenge measured after 8 days by immunohistochemistry relative to untreated control; assay type: functional, organism-based; set-up: dose 10 mg/kg
[30] = tested on: Mus musculus; assay: Neurotoxicity in C57BL/6 mouse assessed as TH protein expression in striatum at 10 mg/kg, ip measured after 8 days by immunohistochemistry; assay type: toxicity, organism-based; set-up: dose 10 mg/kg, route intraperitoneal; settings: in vivo, 192 h
[31] = tested on: Mus musculus; assay: Neuroprotective activity in C57BL/6 mouse sub-acute MPTP-induced parkinson's disease model assessed as increase in TH protein expression in striatum at 10 mg/kg, ip administered for 1 week prior to MPTP challenge measured after 8 days by immunohistochemistry relative to untreated control; assay type: functional, organism-based; set-up: dose 10 mg/kg
[32] = tested on: Mus musculus; assay: Neurotoxicity in C57BL/6 mouse assessed as reduction of DA transporter expression in substantia nigra at 10 mg/kg, ip by immunohistochemistry; assay type: toxicity, organism-based; set-up: dose 10 mg/kg, route intraperitoneal; settings: in vivo
[33] = tested on: Mus musculus; assay: Neuroprotective activity in C57BL/6 mouse acute MPTP-induced parkinson's disease model assessed as increase in TH protein expression in striatum at 10 mg/kg, ip administered for 1 week prior to MPTP challenge measured after 8 days by immunohistochemistry relative to untreated control; assay type: functional, organism-based; set-up: dose 10 mg/kg
[34] = tested on: Mus musculus; assay: Neuroprotective activity in C57BL/6 mouse sub-acute MPTP-induced parkinson's disease model assessed as prevention of loss of DA transporter expression in substantia nigra at 10 mg/kg, ip administered for 1 week prior to MPTP challenge by immunohistochemistry; assay type: functional, organism-based; set-up: dose 10 mg/kg
[35] = tested on: Mus musculus; assay: Neuroprotective activity in C57BL/6 mouse sub-acute MPTP-induced parkinson's disease model assessed as increase in BDNF expression in brain at 10 mg/kg, ip administered for 1 week prior to MPTP challenge by immunohistochemistry; assay type: functional, organism-based; set-up: dose 10 mg/kg
[36] = tested on: Mus musculus; assay: Neuroprotective activity in C57BL/6 mouse acute MPTP-induced parkinson's disease model assessed as prevention of loss of DA transporter expression in substantia nigra at 10 mg/kg, ip administered for 1 week prior to MPTP challenge by immunohistochemistry; assay type: functional, organism-based; set-up: dose 10 mg/kg
[37] = tested on: Mus musculus; assay: Neurotoxicity in C57BL/6 mouse assessed as basal NGF expression in brain at 10 mg/kg, ip by immunohistochemistry; assay type: toxicity, organism-based; set-up: dose 10 mg/kg, route intraperitoneal; settings: in vivo
[38] = tested on: Mus musculus; assay: Neuroprotective activity in C57BL/6 mouse acute MPTP-induced parkinson's disease model assessed as increase in BDNF expression in brain at 10 mg/kg, ip administered for 1 week prior to MPTP challenge by immunohistochemistry; assay type: functional, organism-based; set-up: dose 10 mg/kg
[39] = tested on: Mus musculus; assay: Neuroprotective activity in C57BL/6 mouse sub-acute MPTP-induced parkinson's disease model assessed as increase in NGF expression in brain at 10 mg/kg, ip administered for 1 week prior to MPTP challenge by immunohistochemistry; assay type: functional, organism-based; set-up: dose 10 mg/kg
[40] = tested on: Mus musculus; assay: Neuroprotective activity in C57BL/6 mouse acute MPTP-induced parkinson's disease model assessed as increase in NGF expression in brain at 10 mg/kg, ip administered for 1 week prior to MPTP challenge by immunohistochemistry; assay type: functional, organism-based; set-up: dose 10 mg/kg
[41] = tested on: Mus musculus; assay: Neurotoxicity in C57BL/6 mouse assessed as basal GAP-43 expression in brain at 10 mg/kg, ip by immunohistochemistry; assay type: toxicity, organism-based; set-up: dose 10 mg/kg, route intraperitoneal; settings: in vivo

SMILES: C[S@@+]([O-])CCCC/C(=N/OS(=O)(=O)O)S[C@@H]1O[C@H](CO)[C@@H](O)[C@H](O)[C@H]1O (racemic)
- Activity [1]: Active
- Activity [2]: Active
- Activity [3]: Non-toxic
- Activity [4]: Active
- Time [5]: 0 min
- Activity [6]: Active
- Activity [7]: Non-toxic
- Activity [8]: Active
- Activity [9]: Active
- Activity [10]: Active
- Activity [11]: Active
- Activity [12]: Non-toxic
- Activity [13]: Active
- Activity [14]: Active
- Activity [15]: Non-toxic
- Activity [16]: Active
- Activity [17]: Active
- Activity [18]: Non-toxic
- Activity [19]: Active
- Activity [20]: Non-toxic
- Activity [21]: Active
- Activity [22]: Active
- Activity [23]: Active
- Activity [24]: Non-toxic
- Activity [25]: Active
- Activity [26]: Non-toxic
- Activity [27]: Active
- Activity [28]: Active
- Activity [29]: Active
- Activity [30]: Non-toxic
- Activity [31]: Active
- Activity [32]: Non-toxic
- Activity [33]: Active
- Activity [34]: Active
- Activity [35]: Active
- Activity [36]: Active
- Activity [37]: Non-toxic
- Activity [38]: Active
- Activity [39]: Active
- Activity [40]: Active
- Activity [41]: Non-toxic
